# Data from US8431706B2, “1,2,3,4-tetrahydroqinoline derivative useful for the treatment of diabetes” (Eli Lilly and Company, priority 2011, dated 2013).
# Assays:
# [1] = system: mouse insulinoma cell line Min6; experiment: Glucose Dependent Insulin Secretion (GDIS) assay in Min6 cells; assay type: cell-based
# Description: Because activation of GPR40 is known to result in insulin secretion, which is dependent on high glucose concentrations, two separate assay systems (an insulinoma cell line and primary rodent islets) are developed to further characterize compounds that are known to increase intracellular calcium in the GPR40 primary assay discussed above.
# GDIS assays are performed using the mouse insulinoma cell line Min6. […] On the day of the experiment, the cells are washed twice with 200 μl of pre-warmed Krebs-ringer buffer without glucose. Addition of 200 μL of pre-warmed Krebs-ringer buffer containing 2.5 mM glucose is used to starve the cells followed by the addition of compounds in the presence of a high concentration of glucose (25 mM). The plate is incubated at 37° C. for 2 hours. At the end of the 2 h incubation, the supernatant is gently transferred into a Millipore filter plate and spun at 200 g (gravitational force) for 3 minutes. Insulin is assayed using a Mercodia Insulin estimation kit.
# PPARδ = target: T1, PPARδ (Homo sapiens, UniProt Q03181); experiment: PPARδ binding assay (SPA)
# T1 construct: made in house; host or cells: HEK293 (cell lysates)
# T1 sequence (Q03181 1-441): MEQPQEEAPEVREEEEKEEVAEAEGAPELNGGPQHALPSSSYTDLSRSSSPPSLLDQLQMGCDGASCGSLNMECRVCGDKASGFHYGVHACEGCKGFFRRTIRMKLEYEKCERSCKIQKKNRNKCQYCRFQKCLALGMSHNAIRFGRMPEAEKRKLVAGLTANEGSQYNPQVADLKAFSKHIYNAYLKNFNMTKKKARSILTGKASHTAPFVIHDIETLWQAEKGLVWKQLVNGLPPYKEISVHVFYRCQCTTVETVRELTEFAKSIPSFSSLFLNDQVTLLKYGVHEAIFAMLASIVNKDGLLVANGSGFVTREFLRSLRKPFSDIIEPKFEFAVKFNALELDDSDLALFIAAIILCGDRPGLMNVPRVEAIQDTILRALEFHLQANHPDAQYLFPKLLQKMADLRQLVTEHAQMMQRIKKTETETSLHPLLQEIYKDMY
# T1 sequence (P19793 1-462 partner): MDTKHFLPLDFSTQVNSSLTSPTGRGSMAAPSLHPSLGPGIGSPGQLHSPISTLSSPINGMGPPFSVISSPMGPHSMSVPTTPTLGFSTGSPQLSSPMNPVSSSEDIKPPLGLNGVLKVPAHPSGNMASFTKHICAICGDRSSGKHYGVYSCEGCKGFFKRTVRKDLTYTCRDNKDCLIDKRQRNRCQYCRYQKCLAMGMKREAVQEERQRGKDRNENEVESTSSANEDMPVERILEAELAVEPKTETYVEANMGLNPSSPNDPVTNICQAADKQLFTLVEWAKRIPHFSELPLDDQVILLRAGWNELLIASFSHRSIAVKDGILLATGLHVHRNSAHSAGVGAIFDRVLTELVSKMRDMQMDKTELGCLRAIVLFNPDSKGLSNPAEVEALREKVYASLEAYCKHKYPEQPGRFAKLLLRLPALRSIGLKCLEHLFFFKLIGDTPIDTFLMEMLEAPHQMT
# Description: Because GPR40 is known to be activated by ligands to PPARγ, the exemplified compound is examined in PPARα, PPARδ, and PPARγ binding and functional assays to determine the selectivity of the compound of Example 1 for GPR40.
# Binding affinities of the compound for the PPAR α, δ, and γ receptors are assessed using Scintillation Proximity Assay (SPA) technology. Biotinylated oligonucleotide Direct Repeat 2 (DR2) is used for binding the receptors to Yttrium silicate streptavidin-coated SPA beads. PPAR α, δ, γ and retinoid X receptor (RXR) α are over expressed in HEK293 cells, and cell lysates containing the specific receptors are used in the individual assays. The DR2 is attached to the SPA beads over a 30 minute period in a binding buffer containing 10 mM HEPES pH 7.8, 80 mM KCl, 0.5 mM MgCl2, 1 mM DTT, 0.5% 3[(3-cholamidopropyl)dimethylammonio]-propanesulfonic acid (CHAPS), and 4.4% bovine serum. […] Non-specific binding is determined in the presence of 10,000 nM of the unlabeled PPAR α/δ dual agonist reference compound for the alpha and delta receptor assays and the PPARγ agonist reference compound for the gamma receptor assay. The binding reaction (100 μl per well in a 96 well [Costar 3632] plate) is incubated for 10 h and counted disintegration per minutes (dpm) on a Wallac Microbeta. Receptor binding affinity (IC50) for the compound is determined by fitting an 11 point concentration-response curve with a 4-parameter logistic equation. Ki is determined from the IC50 using the Cheng-Prussoff equation and Kd determined by saturation binding. […]
compound,measurement,setting,value
"CC#C[C@@H](CC(=O)O)c1ccc(OCc2ccc(CN3CCCc4cccc(OC)c43)s2)cc1 [Example 1, (3S)-3-[4-[[5-[(8-Methoxy-3,4-dihydro-2H-quinolin-1-yl)methyl]-2-thienyl]methoxy]phenyl]hex-4-ynoic acid]",increase in insulin secretion,"[1]; 1.0 μM plus 25 mM glucose, fold over 25 mM glucose, 2 h, P<0.01",2.68 fold
same,"insulin secretion, dose response","[1]; 0.01, 0.1, 1.0 and 10.0 μM plus 25 mM glucose",dose dependent increase in insulin secretion
same,binding,PPARδ; concentrations up to 10 μM,no binding is detected
same,IC50,"PPARδ; tested up to 30 μM, read-out: relative IC50",> 10 µM
same,PPAR binding values,PPARδ; with 10 μM concentrations of test compound,greater than 1000 nM
